Biological target: T1, membrane ATP synthase (Homo sapiens, UniProt P06576+P25705+P36542)
T1 construct: Measurement of the effect of OPFP1 on the production of extracellular ATP in the SH-SY5Y cell line; endogenous in cells; host or cells: SH-SY5Y human neuroblastoma cells
Assay: Production of extracellular ATP in SH-SY5Y cell line
Assay type: cell-based
Conditions: after 5′ pre-incubation, OPFP1 mixture 10 μg/ml, piceatannol 4 μM, read-out: maximum inhibition of ATP synthesis
Procedure: FIG. 6. Production of extracellular ATP. Measurement of the effect of OPFP1 on the production of extracellular ATP in the SH-SY5Y cell line. (A) analysis of the effects on ATP production at different pre-incubation times; (B) evaluation of the effects elicited by different concentrations of the OPFP1 mixture (results are the mean of three independent experiments).
The mixture not only binds this enzyme complex but also modulates its activity. As positive control, piceatannol (3,4,3′,5′-tetrahydroxy-trans-stilbene) was used, that is a resveratrol metabolite well-known for its inhibitory activity on the production of extracellular ATP.

inhibition at 4 µM: 97%
SMILES: Oc1cc(O)cc(/C=C/c2ccc(O)c(O)c2)c1 [piceatannol, 3,4,3′,5′-tetrahydroxy-trans-stilbene]

From patent US20110311562A1, “Glycolipid Mixture with Anti-Inflammatory Activity Obtained from Oscillatoria Planktothrix” (priority 2009, published 2011)
